Values after ≈ are worked out from the molar mass of the structure shown. “Also recorded” adds a separate entry of the source. Where two headings read alike, the source gives them in different places.
What was measured:
recombinant rat sEH = biological target: T1, recombinant rat sEH (Rattus norvegicus, UniProt P80299); experiment: sEH inhibition by fluorescent assay (CMNPC assay), rat; type: biochemical; details: recombinant rat sEH 0.96 nM, [S] = 5 μM, mean ± SD of three measurements
T1 construct: made in house; host or cells: insect High Five cells, recombinant baculovirus
T1 sequence (P80299 1-554): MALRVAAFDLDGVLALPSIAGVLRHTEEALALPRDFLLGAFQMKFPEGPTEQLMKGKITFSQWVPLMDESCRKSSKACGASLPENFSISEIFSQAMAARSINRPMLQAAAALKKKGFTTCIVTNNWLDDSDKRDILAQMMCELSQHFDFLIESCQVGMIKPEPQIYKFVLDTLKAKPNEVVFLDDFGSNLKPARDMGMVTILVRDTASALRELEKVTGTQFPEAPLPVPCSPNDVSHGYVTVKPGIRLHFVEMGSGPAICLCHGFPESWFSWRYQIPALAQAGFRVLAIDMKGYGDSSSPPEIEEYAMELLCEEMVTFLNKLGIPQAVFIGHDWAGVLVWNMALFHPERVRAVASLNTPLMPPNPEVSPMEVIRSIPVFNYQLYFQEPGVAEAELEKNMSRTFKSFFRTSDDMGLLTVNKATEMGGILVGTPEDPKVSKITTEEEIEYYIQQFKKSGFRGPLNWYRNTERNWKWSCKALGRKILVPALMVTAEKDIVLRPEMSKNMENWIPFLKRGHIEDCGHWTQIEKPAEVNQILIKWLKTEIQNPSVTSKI
Protocol: (§1) Recombinant human and recombinant rat sEH were produced in insect High Five cells using recombinant baculovirus expression vectors, and purified by affinity chromatography as reported previously. Each enzyme appeared as a single band (0.3 μg loading) with an estimated purity of more than 95% by Coomassie Brilliant Blue staining following SDS-PAGE separation (S1 Fig.). The final recombinant sEH preparations had no esterase or glutathione S-transferase activity which interferes with the CMNPC assay as described below.
(§2) IC50 values were determined as described previously using cyano (2-methoxynaphthalen-6-yl) methyl trans-(3-phenyl-oxyran-2-yl) methyl carbonate (CMNPC) as a fluorescent substrate. Recombinant human or recombinant rat sEH (0.96 nM) was incubated with crude root extract or inhibitors for 5 min in 25 mM bis-Tris/HCl buffer (pH 7.0) containing 0.1 mg/mL of BSA at 30°C prior to substrate introduction ([S] = 5 μM). Activity was measured by determining the appearance of the 6-methoxy-2-naphthaldehyde with an excitation wavelength of 330 nm and an emission wavelength of 465 nm for 10 min.

recombinant human sEH [1] = biological target: T2, recombinant human sEH (Homo sapiens, UniProt P34913); experiment: sEH inhibition by fluorescent assay (CMNPC assay), human; type: biochemical; details: for IC50: recombinant human sEH 0.96 nM, [S] = 5 μM, mean ± SD of three measurements
T2 construct: made in house; host or cells: insect High Five cells, recombinant baculovirus
T2 sequence (P34913 1-555): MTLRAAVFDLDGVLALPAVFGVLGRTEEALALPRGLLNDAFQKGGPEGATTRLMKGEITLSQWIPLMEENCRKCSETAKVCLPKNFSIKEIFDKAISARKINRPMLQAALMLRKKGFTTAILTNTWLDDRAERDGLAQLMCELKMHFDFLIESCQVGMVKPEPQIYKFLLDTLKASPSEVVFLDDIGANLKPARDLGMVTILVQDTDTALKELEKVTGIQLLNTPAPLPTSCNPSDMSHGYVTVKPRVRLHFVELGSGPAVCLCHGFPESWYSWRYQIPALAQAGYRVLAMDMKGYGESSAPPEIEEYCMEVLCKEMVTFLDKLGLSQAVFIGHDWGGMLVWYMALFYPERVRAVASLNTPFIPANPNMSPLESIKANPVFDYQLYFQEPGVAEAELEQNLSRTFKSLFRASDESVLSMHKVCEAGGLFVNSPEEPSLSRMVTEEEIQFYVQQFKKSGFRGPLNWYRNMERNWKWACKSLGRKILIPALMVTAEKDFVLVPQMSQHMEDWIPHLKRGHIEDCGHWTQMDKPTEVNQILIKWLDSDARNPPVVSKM
Protocol: as §1, §2
The inhibitory potency on human sEH was measured using the CMNPC assay as described in the Materials and Methods. Firstly, the inhibition percentage by each fraction (100 times dilution) was measured (Figure S5&S7). Then the inhibitory potency was measured for the fractions showing higher than 50% inhibition and the IC50 was determined. The potency of each of the fractions is presented as a relative potency to the calculated IC50 of the extract based on the concentration of MMU (Relative potency unit=dilution factor at IC50 of each of fraction/dilution factor at calculated IC50 of the extract based on MMU). […] Data in Table S1&S2 show the relative potency of each fraction and the percentage of recovered potency.

recombinant human sEH [2] = biological target: T2, recombinant human sEH; experiment: sEH inhibition by radioactivity-based assay (t-DPPO assay), human; type: biochemical; details: for IC50: t-DPPO 50 μM, mean ± SD of three measurements
Protocol: as §1
IC50 values were determined as described previously with slight modifications, using racemic [^3H] trans-diphenylpropene oxide (t-DPPO). Purified recombinant human sEH was diluted in 100 mM sodium phosphate buffer (pH 7.4) containing 0.1 mg/ml BSA, and was incubated in triplicate with inhibitors for 5 min at 30°C prior to the introduction of the radiolabeled substrate (t-DPPO: 50 μM; ∼10,000 cpm/assay). The mixture was incubated at 30°C for 10 min and the reaction was quenched by the addition of 60 μl of methanol. The remaining substrate was extracted by vigorous mixing with 200 μl of isooctane. The radioactivity of the aqueous phase was measured using a liquid scintillation counter (Perkin Elmer Tri-Carb 2810TR, Shelton, CT). Epoxide hydrolase activity was determined as a percentage of the radioactivity corresponding to the diol in the aqueous phase relative to the control.

[3] = test system: carrageenan induced inflammatory pain; set-up: method as in Rose et al., (2010); details: rat, ref Rose et al., (2010), cited from earlier work
sEH = details: cited from earlier work
[4] = test system: carrageenan induced inflammatory pain; experiment: Nociceptive assay, carrageenan-induced inflammatory pain model (von Frey mechanical withdrawal threshold); type: in vivo; details: rat
Protocol: Male Sprague-Dawley rats weighing 235–280 g were obtained from Charles River Laboratories and maintained in the UC Davis animal housing facility with ad libitum water and food on a 12 h/12 h light-dark cycle. Behavioral nociceptive testing was conducted by assessing mechanical withdrawal threshold using an electronic von Frey anesthesiometer apparatus (IITC, Woodland Hills, CA). […] At least three measurements were taken at 1–2 min inter-stimulus intervals. Data were normalized to percentage values using the formula (mechanical withdrawal threshold (g)) ×100/ (mechanical withdrawal threshold (g) of naïve animals). The analgesic effect of MMU was tested using the intraplantar carrageenan elicited local inflammatory pain model. […] Subsequently, the ability of these treatments to reduce the carrageenan-induced inflammatory pain was monitored over the course of 2.5 h.

recombinant human sEH [5] = biological target: T2, recombinant human sEH; experiment: Enzyme kinetics (Dixon method, t-DPPO substrate), dissociation constant; type: biochemical
Protocol: Dissociation constants were determined following the method described by Dixon for competitive tight binding inhibitors, using t-DPPO as a substrate. Inhibitor MMU at concentrations between 0 and 1000 nM was incubated in triplicate for 5 min in 100 mM sodium phosphate buffer (pH 7.4) at 30°C with 100 μl of the enzyme (2 nM of recombinant human sEH). Substrate (4.0 ≤ [S] final ≤ 30 μM) was then added. Velocity was measured as described previously. For each substrate concentration, the plots of the velocity as a function of the inhibitor concentration allow the determination of an apparent inhibition constant (Kiapp). The plot of the Kiapp values as a function of the substrate concentration allows the determination of Ki when [S] = 0. Kiapp was measured in at least 3 separate assays. Results are presented as average ± SE.

[6] = Solubility in sodium phosphate buffer; type: physicochemical; details: sodium phosphate buffer 0.1 M pH 7.4, 25°C, mean±SD
Protocol: An excess amount of MMU was added to a vial containing sodium phosphate buffer, 0.1 M pH 7.4 (0.25 mL), and the MMU suspension was equilibrated during 1 h of sonication and 48 h of shaking at 25°C, followed by centrifugation. The amount of MMU in the supernatant was analyzed by LC—MS/MS. The result is presented as mean ± SD of triplicate measurement.

human sEH = details: cited from earlier work

COc1ccc(CNC(=O)NCc2ccccc2)cc1 [BMU, 1-Benzyl-3-(4-methoxybenzyl) urea]
IC50 (recombinant rat sEH): 44 ± 4.2 nM | IC50 (recombinant human sEH [1]): 400 ± 50 nM | inhibitory activity lower than that of MMU (recombinant human sEH [1]; with both CMNPC and t-DPPO assays): about 4 fold | IC50 (recombinant human sEH [2]): 10200 ± 2600 nM

O=C(NCc1ccccc1)NCc1ccccc1 [BBU, 1,3-Dibenzylurea]
IC50 (recombinant rat sEH): 100 ± 6 nM | IC50 (recombinant human sEH [1]): 1900 ± 300 nM | IC50 (recombinant human sEH [2]): 48300 ± 7000 nM

CN1CC[C@]23c4c5ccc(O)c4O[C@H]2[C@@H](O)C=C[C@H]3[C@H]1C5 [morphine]
reduction of carrageenan-induced inflammatory pain ([3]; 10 μg/paw intraplantar): significantly reduced carrageenan induced inflammatory pain; also recorded: significantly reduced pain levels

C=CCc1ccc(O)c(-c2ccc(O)c(CC=C)c2)c1 [honokiol, reference compound]
IC50 (sEH): 3400 nM | IC50 (recombinant human sEH [2]): 20300 ± 1700 nM

COc1ccc(CNC(=O)NCc2ccc(OC)cc2)cc1 [MMU, 1,3-Bis (4-methoxybenzyl) urea]
IC50 (recombinant rat sEH): 35 ± 5 nM | IC50 (recombinant human sEH [1]): 92 ± 14 nM | reduction of carrageenan-induced inflammatory pain ([4]; 10 μg/paw intraplantar, 4 h after carrageenan, monitored 2.5 h): effectively reduced inflammatory pain; also recorded: significantly reduced carrageenan induced inflammatory pain; also recorded: significantly reduced pain levels; also recorded: showed local analgesic effects | duration of efficacy compared to morphine ([4]; MMU 10 μg/paw vs morphine 10 μg/paw, Tukey p<0.05): longer duration of efficacy compared to morphine | Ki (recombinant human sEH [5]): 54 nM | potency higher than APAU (Ki based) (recombinant human sEH [5]): approximately 2 fold | potency lower than t-AUCB (Ki based) (recombinant human sEH [5]): approximately 40 fold | IC50 (recombinant human sEH [2]): 2600 ± 400 nM | potency relative to honokiol (more potent) (recombinant human sEH [2]; t-DPPO assay): about 8 fold | solubility at 48 h [6]: 10.6 ± 2.1 µM (≈ 3.18 µg/mL)

CC(=O)O[C@H]1CC[C@]2(C)[C@H]3CC=C4[C@@H]5CC(C)(C)CC[C@]5(C)CC[C@@]4(C)[C@]3(C)CC[C@H]2C1(C)C [β-amyrin acetate]
IC50 (sEH): 570 nM

O=C(Nc1ccc(OC(F)(F)F)cc1)NC1CCN(C(=O)C2CC2)CC1 [TPCU, 1-(1-(Cyclopropanecarbonyl)piperidin-4-yl)-3-(4-(trifluoromethoxy)phenyl) urea]
reduction of carrageenan-induced inflammatory pain ([3]; 10 ng/paw intraplantar): significantly reduced carrageenan induced inflammatory pain; also recorded: significantly reduced pain levels | IC50 (human sEH): […]
